Experimental data from patent US20100015058A1, “RADIOLABELED BBN-RGD HETERODIMERS FOR CANCER TARGETING” (STANFORD UNIVERSITY, priority 2008, published 2010).

Key:
[1] = biological target: T1, GRPR (Homo sapiens, UniProt P30550); assay: Displacement cell-binding assay with ^125I-[Tyr4]BBN on PC-3 cells; settings: FIG. 34B, PEG3-Glu-RGD-BBN series; read-out: IC50, displacement of ^125I-[Tyr4]BBN from PC-3 cells
T1 construct: Experiments were performed on GRPR-expressing PC-3 cells following our previously described procedure; endogenous in cells; host or cells: PC-3 human prostate carcinoma cells
T1 sequence (P30550 whole entry): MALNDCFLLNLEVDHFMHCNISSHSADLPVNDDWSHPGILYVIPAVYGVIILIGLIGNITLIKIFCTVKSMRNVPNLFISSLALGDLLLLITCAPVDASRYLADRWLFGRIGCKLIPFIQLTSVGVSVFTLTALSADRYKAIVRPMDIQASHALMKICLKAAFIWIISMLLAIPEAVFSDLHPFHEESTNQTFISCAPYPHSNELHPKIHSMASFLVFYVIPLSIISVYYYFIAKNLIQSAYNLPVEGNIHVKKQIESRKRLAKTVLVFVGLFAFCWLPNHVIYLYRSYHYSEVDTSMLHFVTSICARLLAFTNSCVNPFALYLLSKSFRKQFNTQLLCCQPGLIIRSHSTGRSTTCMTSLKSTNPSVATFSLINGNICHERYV
Procedure: Experiments were performed with triplicate samples.
BBN as the radioligand. […] Experiments were performed twice with triplicate samples.

[2] = system: PC-3 tumor cells; assay: Cell uptake assay on PC-3 tumor cells; type: cell-based, human; settings: PC-3 cells
Procedure: In the cell uptake experiment, PC-3 cells were seeded into 12-well plates at a density of 5×10^5 cells per well for overnight incubation. Cells were rinsed 3 times with phosphate-buffered saline (PBS), followed by the addition of ^18F-FB-RGD, ^18F-FB-BBN, or ^18F-BBN-RGD to the cultured wells in triplicate (about 2 μCi/well). […] The cell lysate was collected in measurement tubes for counting. The cell uptake was normalized in terms of added radioactivity.
(§1) The cell uptake studies were performed as we have previously described with some modifications (Chen et al., Mol Imaging Biol. (2004) […]; Cai et al., (2006) J. Nuc. Med. 47: 1172-1180, incorporated herein by reference in their entireties). Briefly, PC-3 cells were seeded into 12-well plates at a density of 5×10^5 cells per well and incubated (about 18 kBq/well) with ^68Ga-labeled tracers at 37° C. for 15, 30, 60, and 120 min. Tumor cells were then washed three times with chilled PBS and harvested by trypsinization with 0.25% trypsin/0.02% EDTA (Invitrogen). The cell suspensions were collected and measured in a y counter (Packard, Meriden, Conn.). The cell uptake was expressed as the percent added dose (% AD) after decay correction. Experiments were performed twice with triplicate wells. For efflux studies, ^68Ga-labeled tracers (about 18 kBq/well) were first incubated with PC-3 cells in 12-well plates for 1 h at 37° C. to allow internalization. Then cells were washed twice with PBS, and incubated with cell culture medium for 15, 30, and 60 min. After washing three times with PBS, cells were harvested by trypsinization with 0.25% trypsin/0.02% EDTA. The cell suspensions were collected and measured in a γ counter. Experiments were performed twice with triplicate wells. Data are expressed as percent added dose after decay correction.

[3] = in vivo; settings: mouse, in vivo, iv, total radioactivity
Procedure: (a) PET scans and image analysis were performed using a micro-PET R4 rodent model scanner (Siemens Medical Solutions) as reported by Li et al., J. Nucl. Med. (2007) 48: 1162-1171 and Wu et al., J Nucl. Med. (2005) 46: 1707-1718, both of which are incorporated herein by reference in their entireties). […] Five-minute static PET images were then acquired at 0.5, 1, and 2 h after injection. The images were reconstructed by a 2-dimensional ordered-subsets expectation maximum (OSEM) algorithm. No attenuation or scatter correction was applied. […] The 5-min static PET scans were then acquired at 1 hr after injection. For each small-animal PET scan, regions of interest (ROIs) were drawn over the tumor, normal tissue, and major organs by using vendor software (ASI Pro 5.2.4.0) on decay-corrected whole-body coronal images. The average radioactivity concentration (accumulation) within a tumor or an organ was obtained from mean pixel values within the multiple ROI volume, which were converted to counts/mL/min using a conversion factor. Assuming a tissue density of 1 g/mL, the ROIs were converted to counts/g/min, and then divided by the administered activity to obtain an imaging ROI-derived percentage injected dose per gram of tissue (% ID/g).
For dynamic PET, 30-min scans (1×30 s, 4×1 min, 1×1.5 min, 4×2 min, 5×3 min; total 15 frames) were started 1 min after injection, and two 5-min static PET images were also acquired at 1 h and 2 h after injection. […] For each small-animal PET scan, regions of interest (ROIs) were drawn over the tumor, normal tissue, and major organs using vendor software ASI Pro 5.2.4.0 on decay-corrected whole-body coronal images. The maximum radioactivity concentrations (accumulation) within a tumor or an organ were obtained from mean pixel values within the multiple ROI volume, and were converted to megabecquerels per milliliter per minute using a conversion factor. These values were then divided by the administered activity to obtain (assuming a tissue density of 1 g/ml) an image ROI-derived percent injected dose per gram (% ID/g).
The images were reconstructed using a 2-dimensional ordered-subsets expectation maximum algorithm without attenuation or scatter correction.
For each small-animal PET scan, regions of interest were drawn over each tumor, over normal tissue, and over major organs using vendor software (ASI Pro, version 5.2.4.0) on decay-corrected whole-body coronal images. The maximum radioactivity concentration (accumulation) within a tumor or an organ was obtained from the mean pixel values within the multiple-region-of-interest volume, which were converted to MBq/mL/min using a conversion factor. Assuming a tissue density of 1 g/mL, the regions of interest were converted to MBq/g/min and then divided by the administered activity to obtain an imaging region-of-interest-derived percentage injected dose (% ID)/g.

[4] = in vivo; set-up: species or system mice; settings: female, BALB/c, mouse, iv, 3.7 MBq, total radioactivity
Procedure: The 4T1 murine breast cancer cell line was purchased from American Type Culture Collection and grown in RMPI 1640 medium (Invitrogen Corp.) supplemented with 10% (v/v) fetal bovine serum (Invitrogen) at 37° C. with 5% CO2. The 4T1 tumor model was generated by subcutaneous injection of 5×10^6 tumor cells into the left front flank of female normal BALB/c mice (Harlan).
Five-minute static PET images were then acquired at 2 h after injection (n=3/group).

[5] = Small-animal PET of MDA-MB-435 tumor-bearing mice; settings: female, athymic nude, mouse, in vivo, iv, 3.7 MBq, total radioactivity, MDA-MB435 tumor uptake
[6] = system: PC-3 tumor cells; type: cell-based, human; settings: PC-3 cells, 60 min efflux, FIG. 14D
Procedure: In the cell efflux experiment, PC-3 cells were seeded into 12-well plates at a density of 5×10^5 cells per well for overnight incubation. Cells were rinsed 3 times with PBS and then the appropriate ^18F-labeled peptide tracer was added. The cells were incubated at 37° C. for 2 hr, washed with PBS, and then reincubated with serum-free medium. The cells were washed at different time points (0, 15, 30, 60, 120, 180 min) with PBS and lysed with NaOH-SDS (0.2 M NaOH, 1% SDS). The cell lysate was collected in measurement tubes for counting. Efflux values at different time points were calculated by subtracting retention from 0-min retention, and normalized by dividing the total counts at 0 min.
as §1

[7] = system: DU-145 tumor; type: in vivo, mice; settings: integrin αvβ3-positive, low GRPR-expressing tumor
Procedure: The PC-3 and DU-145 human prostate carcinoma cell lines were purchased from American Type Culture Collection. PC-3 cells were grown in F-12K nutrient mixture (Kaighn's modification) (Invitrogen Corp.), and DU-145 cells were grown in minimum essential medium (Eagle) mixture supplemented with 10% (v/v) fetal bovine serum (Invitrogen) at 37° C. with 5% CO2. The PC-3 and DU-145 tumor models were generated by subcutaneous injection of 5×10^6 tumor cells into the front flank of male athymic nude mice (Harlan).
No attenuation or scatter correction was applied.

[8] = male, athymic nude, 5.5 MBq, Blood uptake
[9] = male, athymic nude, 5.5 MBq, Tumor uptake

Compound	tissue uptake at 0.5 h [3, 9] [%ID/g]	tissue uptake at 1 h [3, 9] [%ID/g]	tissue uptake at 4 h [3, 9] [%ID/g]	tissue uptake at 20 h [3, 9] [%ID/g]	tissue uptake at 1 h ([3]; 5.5 MBq, Blood uptake) [%ID/g]	tissue uptake at 4 h ([3]; 5.5 MBq, Blood uptake) [%ID/g]	tissue uptake at 20 h ([3]; 5.5 MBq, Blood uptake) [%ID/g]	tissue uptake at 0.5 h ([3]; 5.5 MBq, Kidney uptake) [%ID/g]	tissue uptake at 1 h ([3]; 5.5 MBq, Kidney uptake) [%ID/g]	tissue uptake at 4 h ([3]; 5.5 MBq, Kidney uptake) [%ID/g]	tissue uptake at 20 h ([3]; 5.5 MBq, Kidney uptake) [%ID/g]	tissue uptake at 0.5 h ([3]; 5.5 MBq, Liver uptake) [%ID/g]	tissue uptake at 1 h ([3]; 5.5 MBq, Liver uptake) [%ID/g]	tissue uptake at 4 h ([3]; 5.5 MBq, Liver uptake) [%ID/g]	tissue uptake at 20 h ([3]; 5.5 MBq, Liver uptake) [%ID/g]	further results
CSCC[C@H](NC(=O)[C@H](CC(C)C)NC(=O)[C@H](Cc1c[nH]cn1)NC(=O)CNC(=O)[C@@H](NC(=O)[C@H](C)NC(=O)[C@H](Cc1c[nH]c2ccccc12)NC(=O)[C@H](CCC(N)=O)NC(=O)CCCCCNC(=O)CC[C@H](NC(=O)COCCOCCOCCN)C(=O)NCCCC[C@@H]1NC(=O)[C@@H](Cc2ccc(O)cc2)NC(=O)[C@H](CC(=O)O)NC(=O)CNC(=O)[C@H](CCCNC(=N)N)NC1=O)C(C)C)C(N)=O [PEG3-Glu-RGD-BBN]																IC50 [1]: 0.0854 ± 0.00195 µM
CSCC[C@H](NC(=O)[C@H](CC(C)C)NC(=O)[C@H](Cc1c[nH]cn1)NC(=O)CNC(=O)[C@@H](NC(=O)[C@H](C)NC(=O)[C@H](Cc1c[nH]c2ccccc12)NC(=O)[C@H](CCC(N)=O)NC(=O)CCCCCNC(=O)CC[C@H](NC(=O)CN1CCN(CC(=O)O)CCN(CC(=O)O)CCN(CC(=O)O)CC1)C(=O)NCCCC[C@@H]1NC(=O)[C@@H](Cc2ccc(O)cc2)NC(=O)[C@H](CC(=O)O)NC(=O)CNC(=O)[C@H](CCCNC(=N)N)NC1=O)C(C)C)C(N)=O [^64Cu-DOTA-RGD-BBN, metal not drawn]	3.05 ± 0.56	1.87 ± 0.41	1.05 ± 0.49	0.97 ± 0.24	0.69 ± 0.24	0.45 ± 0.2	0.31 ± 0.13	5.99 ± 1.61	3.4 ± 1.25	2.51 ± 0.47	1.64 ± 0.34	3.4 ± 1.42	3.05 ± 1.07	2.33 ± 0.88	1.74 ± 0.9	cell uptake value ([2]; 120 min): 3.70 % added dose; tissue uptake at 0.5 h [3, 8]: 1.15 ± 0.49 %ID/g
CSCC[C@H](NC(=O)[C@H](CC(C)C)NC(=O)[C@H](Cc1c[nH]cn1)NC(=O)CNC(=O)[C@@H](NC(=O)[C@H](C)NC(=O)[C@H](Cc1c[nH]c2ccccc12)NC(=O)[C@H](CCC(N)=O)NC(=O)CCCCCNC(=S)Nc1ccc(C[C@H]2CN(CC(=O)O)CCN(CC(=O)O)CCN2CC(=O)O)cc1)C(C)C)C(N)=O [^64Cu-NOTA-BBN, metal not drawn, reference compound]	2.28 ± 0.35	1.25 ± 1.03	0.56 ± 0.4	0.44 ± 0.39	0.23 ± 0.11	0.19 ± 0.1	0.15 ± 0.05	3.55 ± 1.17	1.5 ± 0.39	0.76 ± 0.45	0.5 ± 0.44	10.4 ± 2.27	8.85 ± 1.61	6.35 ± 0.57	4.2 ± 0.53	tissue uptake at 0.5 h [3, 8]: < 1 %ID/g; tissue uptake at 24 h [3, 9]: 0.44 ± 0.39 %ID/g; tissue uptake at 2 h [4]: 0.33 ± 0.18 %ID/g
N=C(N)NCCC[C@@H]1NC(=O)[C@H](CCCCNC(=S)Nc2ccc(C[C@H]3CN(CC(=O)O)CCN(CC(=O)O)CCN3CC(=O)O)cc2)NC(=O)[C@@H](Cc2ccc(O)cc2)NC(=O)[C@H](CC(=O)O)NC(=O)CNC1=O [^64Cu-NOTA-RGD, metal not drawn, reference compound]	1.01 ± 0.29	0.83 ± 0.24	0.66 ± 0.21	0.55 ± 0.32	0.43 ± 0.32	0.3 ± 0.11	0.34 ± 0.18	3.37 ± 0.89	2.13 ± 0.85	1.43 ± 0.68	0.98 ± 0.48	2.86 ± 1.06	2.68 ± 1.15	2.15 ± 0.79	1.67 ± 0.69	tissue uptake at 2 h [4]: 0.65 ± 0.07 %ID/g
CSCC[C@H](NC(=O)[C@H](CC(C)C)NC(=O)[C@H](Cc1c[nH]cn1)NC(=O)CNC(=O)[C@@H](NC(=O)[C@H](C)NC(=O)[C@H](Cc1c[nH]c2ccccc12)NC(=O)[C@H](CCC(N)=O)NC(=O)CCCCCNC(=S)Nc1ccc(C[C@H]2CN(CC(=O)O)CCN(CC(=O)O)CCN2CC(=O)O)cc1)C(C)C)C(N)=O [^68Ga-NOTA-BBN, metal not drawn, reference compound]																tissue uptake at 1 h [5]: 0.38 ± 0.5 %ID/g; tissue uptake at 0.5 h ([3]; male, athymic nude, 3.7 MBq, liver uptake (highest)): 2 %ID/g; cell-associated tracer (cell retention) [6]: 6.70±1.00 % AD
N=C(N)NCCC[C@@H]1NC(=O)[C@H](CCCCNC(=S)Nc2ccc(C[C@H]3CN(CC(=O)O)CCN(CC(=O)O)CCN3CC(=O)O)cc2)NC(=O)[C@@H](Cc2ccc(O)cc2)NC(=O)[C@H](CC(=O)O)NC(=O)CNC1=O [^68Ga-NOTA-RGD, metal not drawn, reference compound]																tissue uptake at 1 h [5]: 1.63 ± 0.59 %ID/g
^18F-FB-BBN-RGD: ^18F-fluorobenzoate-labeled heterodimer of BBN(7-14) and c(RGDyK) joined through a glutamate linker																detection of the DU-145 tumor by PET [7]: able to visualize this tumor model
^18F-FB-RGD: ^18F-fluorobenzoate-labeled monomeric RGD peptide c(RGDyK) [reference compound]																detection of the DU-145 tumor by PET [7]: able to visualize this tumor model; cell uptake ([2]; 37° C., normalized to added radioactivity): < 0.5%
